These results are taken from ChEMBL document CHEMBL1158663, “New acetylenes isolated from the bark of Heisteria acuminata” (J Nat Prod, 1998).

For experiment [1], the species on record is Ovis aries. As to the kind of experiment: Inhibition of COX in sheep seminal vesicle microsome assessed as reduction in PGE2 concentration at 6.5 uM relative to control. The experiment is classed as microsomes.
The next experiment is filed under the species Sus scrofa. The experiment is described as follows: Inhibition of 5-LO from pig leukocytes at 5 uM.
For experiment [2], the species on record is Ovis aries. The experiment is described as follows: Inhibition of COX in sheep seminal vesicle microsome assessed as reduction in PGE2 concentration at 13 uM relative to control. The experiment is classed as microsomes.

SMILES strings stand for the structures.

As a reminder, the inhibition is the percentage by which the read-out fell short of the control. With `CCCCC/C=C\CC#CC#CCCCCCC(=O)O`, the values for the inhibition in the experiment filed under Ovis aries [1], in the experiment listed under Sus scrofa and in the experiment filed under Ovis aries [2] were 40%, 55% and 56%, respectively.

As for `CCCC/C=C/C#CC#CCCCCC(=O)O`, the inhibition is 44% in the experiment listed under Ovis aries [1], 14% in the experiment listed under Sus scrofa and 56% in the experiment listed under Ovis aries [2].

For `CCCC/C=C\C#CC#CCCCCCC(=O)O`, the inhibition stood at 36% in the experiment listed under Ovis aries [1], 45% in the experiment filed under Sus scrofa and 51% in the experiment filed under Ovis aries [2].

For the compound `CCCCC#CC#CC#CCCCCC(=O)O`, the values for the inhibition in the experiment filed under Ovis aries [1], in the experiment listed under Sus scrofa and in the experiment filed under Ovis aries [2] were 36%, 18% and 55%, respectively.

In the case of `CCCCCC#CC#CC#CCCCCCCC(=O)O`, the figures for the inhibition in the experiment listed under Ovis aries [1], in the experiment filed under Sus scrofa and in the experiment filed under Ovis aries [2] were 33%, 21% and 45%, respectively.
